Experimental findings from the METLIN SMRT retention time set (Domingo-Almenara et al. 2019) are described below.

The data set is described as follows: gradient 5% acetonitrile 3 min, to 50% in 2 min, to 85% in 15 min, held 3 min, 100 µL/min. The following applies: column: Zorbax Extend-C18 2.1 x 50 mm; eluents: water / acetonitrile, 0.1% formic acid. The gist of the method:
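Each retention time is based on an adduct peak selected computationally and verified by manual inspection. Measurements used HPLC–quadrupole time-of-flight mass spectrometry in positive and negative ionization mode on mixtures of ~100 pure standards. Chromatography ran on a Zorbax Extend-C18 column (2.1 × 50 mm, 1.8 μm) at 100 μL/min with water and acetonitrile, each containing 0.1% formic acid, and dead and dwell volumes of 40 μL and 900 μL.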
`Cc1cccc(CNC(=O)CCc2conc2-c2ccccc2)c1`: the RP-LC retention time was 923 s.
On to `CC1CCN(S(=O)(=O)c2cccc(-c3nc(-c4ccccc4)no3)c2)CC1`, for which the RP-LC retention time was determined as 1360 s.
The molecule `O=C(NCC1CCCO1)C1CCN(C(=O)c2ncn3c2COC(c2ccc(F)cc2)C3)CC1` (centres undefined) gave an RP-LC retention time of 658 s.
`O=C(CCNc1cnc2cnccn12)NCc1ccccc1C(F)(F)F` came in with an RP-LC retention time of 585 s.
In the case of `CCC(C)NC(=O)N1CCCN(C2=NS(=O)(=O)C(c3ccc(F)cc3)=C2C)CC1` (centres undefined), the RP-LC retention time turned out to be 787 s.
`CCC1CN2C=NC(N3CCN(C(=O)c4ccc5c(c4)OCO5)CC3)=CC2=N1` (centres undefined): the RP-LC retention time is 609 s.
For `Cc1ccc(F)c2c(=O)c3c([nH]c12)CCN(CC(=O)Nc1ccc(F)c(F)c1)C3` the value was 635 s; for `COc1ccc(-c2c(C)noc2NC(C)=O)cc1S(=O)(=O)Nc1ccc(C#N)cc1`, 710 s.
Turning to `COc1ccccc1-c1noc(-c2nc(C)no2)n1`, the RP-LC retention time was determined as 877 s.
The molecule `COC(=O)C(C)NC(=O)N1CCC2(CC1)Nc1cc(F)ccc1-n1cccc12` (centres undefined) displayed an RP-LC retention time of 865 s.
`CN1C(=O)c2cc(C(=O)Nc3ccc(F)cc3F)nn2CC1(C)C(=O)NC1CCCCC1` (centres undefined) came in with an RP-LC retention time of 732 s.
`CCOc1ccc(NC(=O)N2CCC(n3cnc4cc(F)ccc4c3=O)CC2)cc1` had an RP-LC retention time of 797 s.
For `CCOc1ccc(-c2cc(=O)n(CCCC(=O)Nc3ccc4sc(C)nc4c3)cn2)cc1` the value was 721 s; for `COc1ccccc1-c1nc2cnccn2c1NCCC(=O)Nc1cc(F)ccc1F`, 723 s; for `C=CCN1C(=O)COc2ccc(-c3nc(NC(=O)c4ccc(C)cc4)sc3C)cc21`, 1100 s.
In the case of `Cc1ccn2cc(CC(=O)Nc3ccc(F)cc3)nc2c1` it was 595 s; in that of `Cc1cccc(NC(=O)C23CCC=C2N(C2CCCC2)C(=O)CC3)c1` (centres undefined), 952 s; in that of `Cc1ccc2c(c1)N(c1ccc(N(C)C)cc1)C=C(C(=O)N1CCCC1)S2(=O)=O`, 874 s.
Molecule `Cn1cc(-c2cc3n(n2)CCC(=O)N3CCCC(=O)NCCCN2CCCC2)c2ccccc21` came in with an RP-LC retention time of 621 s.
`COc1ccccc1OCC(=O)NCCc1sc(-c2ccc(Cl)cc2)nc1C`: the RP-LC retention time was determined as 953 s.
For the molecule `Cc1noc(C)c1S(=O)(=O)N1CCC(c2noc(COCC3CC3)n2)CC1`, the RP-LC retention time amounted to 931 s.
As to `Cn1cc(-c2ccccc2)cc1C(=O)N1CCOCC1`, the RP-LC retention time worked out at 804 s.
For `COC(=O)c1sc(NC(=O)COc2ccc(Cl)cc2)nc1C` the value was 963 s; for `Fc1ccc(OCc2nn3c(-c4cccnc4)nnc3s2)cc1`, 781 s; for `COCCN1C(=O)c2cccn2CC1CNC(=O)c1sccc1C` (centres undefined), 689 s.
The molecule `Cc1noc([C@@H]2CN(Cc3ccc(F)cc3F)C[C@H]2CO)n1` yielded an RP-LC retention time of 580 s.
`O=C(Nc1ccc(F)cc1)N1CCCC(Cn2c(C3CC3)nc3cccnc32)C1` (centres undefined) came in with an RP-LC retention time of 675 s.
For `COc1ccc(NC(=O)Cn2cnc3c(sc4nc(-c5ccccc5)ccc43)c2=O)cc1` the value was 967 s; for `c1ccc(-c2nc3cc(-c4noc(C5CC5)n4)ccc3o2)cc1`, 1230 s.
In turn, `CC1=C(C(=O)NCc2ccc3c(c2)OCO3)C2(CCN(Cc3ccccc3)CC2)OC1=O` displayed an RP-LC retention time of 669 s.
For `CC1Cc2ccccc2N1Cc1nnc(-c2ccccc2)o1` (centres undefined) the value was 972 s; for `COCCNC(=O)CSc1nc(-c2ccccc2)[nH]c1-c1ccccc1`, 641 s; for `CCNC(=O)c1ccc(-c2csc(C3CC3)n2)cc1`, 796 s.
Consider `COc1cc(Cl)c(NS(=O)(=O)c2cc(-c3cc(C(F)(F)F)[nH]n3)sc2C)c(OC)c1`, for which the RP-LC retention time came to 1030 s.
In the case of `COc1cc(Cl)ccc1C(=O)N1C[C@@H]2C[C@H](NC(=O)c3ccccc3)[C@H]1C2` it was 759 s; in that of `CC1CC(=O)c2cnc(N3CCN(c4ccccc4)CC3)nc2C1` (centres undefined), 1080 s.
`COCCc1noc([C@@H]2CN(Cc3ccc4[nH]ccc4c3)C[C@H]2CO)n1`: the RP-LC retention time stood at 592 s.
Molecule `Cc1cccc(NC(=O)Nc2c(-c3cccc(C)c3)nc3ccccn23)c1` came in with an RP-LC retention time of 716 s.
The molecule `O=C(Cn1ccc2ccccc21)N1CCN(c2ccc(-c3ccccn3)nn2)CC1` returned an RP-LC retention time of 652 s.
`CC(C)c1ccc(N2C(=O)C3N=NN(Cc4nc(-c5ccc6c(c5)OCO6)no4)C3C2=O)cc1` (centres undefined) had an RP-LC retention time of 1060 s.
The molecule `O=C(Cc1cccs1)Nc1cnc(-c2ccccc2)nc1` displayed an RP-LC retention time of 893 s.
Take `CCOCCCNC(=O)N1CCN(Cc2nc3cccnc3n2-c2cc(C)cc(C)c2)CC1`: the RP-LC retention time is 653 s.
In the case of `Cc1cccc(-c2nc(Cn3nnc(-c4nc(-c5ccccc5Cl)no4)c3C)c(C)o2)c1` it was 908 s; in that of `Cc1nc(CC(=O)NCc2ccccc2C(F)(F)F)sc1C(=O)NCC(C)C`, 847 s.
Regarding `O=C(Cc1ccccc1Cl)N1CCC2(C1)C(=O)Nc1ccccc12` (centres undefined), the RP-LC retention time worked out at 758 s.
Molecule `CCCCOc1ccc(NC(=O)c2cc(=O)c3ccc(C)cc3o2)c2cccnc12` gave an RP-LC retention time of 722 s.
`Cc1nc(-c2csc(S(=O)(=O)N3CCCC(C(=O)NCc4ccc(F)cc4)C3)c2)no1` (centres undefined) had an RP-LC retention time of 892 s.
Consider `CCCCS(=O)(=O)N1CCCC(c2nnc(C)s2)C1` (centres undefined), for which the RP-LC retention time is 689 s.
Take `COCCn1ccc2nc(C)c(C(=O)NCCCc3ccco3)cc2c1=O`: the RP-LC retention time is 665 s.
In turn, `O=C(NC1CC1)[C@@H]1C[C@H](Oc2cccnc2)CN1C(=O)C1CCC1` returned an RP-LC retention time of 557 s.
Molecule `CC(C)c1ccc(NC(=O)C2CCCN2S(=O)(=O)c2cc3c(cc2Cl)NC(=O)CO3)cc1` (centres undefined) had an RP-LC retention time of 948 s.
In the case of `COc1ccc(Cl)cc1C(=O)NCC(O)C1CCCCC1` (centres undefined) it was 863 s; in that of `COC1C(=O)N(CC2CC2)C12CCN(C(=O)C1CCOCC1)CC2` (centres undefined), 638 s.
`COc1cc(CN2CCCCCC2c2cccs2)ccc1OCC(N)=O` (centres undefined) registered an RP-LC retention time of 611 s.
`Cc1cc(C)cc(NC(=O)C2CC(=O)N(CCc3c[nH]c4ccc(C)cc34)C2)c1` (centres undefined) displayed an RP-LC retention time of 923 s.
For `CCn1cc(CCN2CCC(C(=O)N3CCCCC3)CC2)c2cccnc21`, the RP-LC retention time came to 587 s.
`COCCc1noc(-c2nc(-c3ccc(OC)cc3)no2)n1` displayed an RP-LC retention time of 976 s.
`Cc1ccc(N2C(=O)CN(S(C)(=O)=O)CC2(C)C(=O)NCc2ccc(Cl)cc2)c(C)c1` (centres undefined) had an RP-LC retention time of 903 s.
In the case of `COc1ccc(C(=O)N2CCc3cn(C)c4cccc(c34)C2)c(OC)c1` it was 875 s; in that of `Cc1nn2c(CNC(=O)c3ccsc3)c(-c3ccccc3)nc2s1`, 782 s.
Take `COc1ccccc1N1CCN(c2ncc(S(=O)(=O)c3ccc(C)c(C)c3)c(N)n2)CC1`: the RP-LC retention time came out at 1020 s.
For `CSc1cccc(NC(=O)CSc2ccc(N3CCCC(C(=O)NC4CC4)C3)nn2)c1` (centres undefined) the value was 682 s; for `CCc1cccc(NC(=O)N2CCC(OC3CCN(S(C)(=O)=O)CC3)CC2)c1`, 803 s.
For the molecule `Cc1sc2cc(C(=O)NCCN3CCOCC3)[nH]c2c1CN1CCCCC1`, the RP-LC retention time was 551 s.
Take `O=C(NC1CCCC1)C1CCN(c2nc3ccc(-c4cncnc4)nc3s2)CC1`: the RP-LC retention time is 776 s.
Turning to `Cc1cc(Cl)ccc1NC(=O)c1cnc(-c2ccccc2)nc1-c1ccncc1`, the RP-LC retention time was 956 s.
With `CO[C@H]1C(=O)N(C2CCN(S(=O)(=O)c3ccc(C#N)cc3)CC2)[C@H]1c1ccncc1`, the RP-LC retention time is 624 s.
For `CN1C(=O)c2cccn2CC1CNC(=O)NCc1ccccc1` (centres undefined) the value was 646 s.
`Cc1noc(C)c1S(=O)(=O)N1[C@H]2CC[C@@H]1c1cnc(-c3ccccc3)nc1C2` gave an RP-LC retention time of 1050 s.
`CCN1C(=O)c2cccnc2Sc2cc(CNC(=O)c3ccc(NC(C)=O)cc3)ccc21` gave an RP-LC retention time of 654 s.
On to `O=C(Nc1cccc(F)c1)N1CCC(N2CCN(Cc3cccc(F)c3)C(=O)C2=O)CC1`, for which the RP-LC retention time came out at 755 s.
For `Cc1cccc(NC(=O)CN2C(=O)CCS(=O)(=O)c3ccccc32)c1`, the RP-LC retention time was found to be 762 s.
In the case of `CCn1c(=O)c2ccccc2n(Cc2nc(-c3ccccc3C)no2)c1=O` it was 1070 s.
In turn, `CCc1ccccc1NC(=O)C1CCN(S(=O)(=O)c2ccc3c(c2)CCCC(=O)N3)CC1` came in with an RP-LC retention time of 757 s.
In turn, `O=C(Cc1csc2nc(-c3ccccc3)cn12)N1CCc2ccccc2C1` displayed an RP-LC retention time of 826 s.
`COc1ccc(-c2ccc(N3CCN(c4ccccc4)CC3)nn2)cc1S(=O)(=O)N1CCOCC1` displayed an RP-LC retention time of 766 s.
On to `COc1cc(OC)c(NC(=O)C2=C(C)C(=O)OC23CCN(C(C)C)CC3)cc1Cl`, for which the RP-LC retention time came out at 654 s.
`COC(=O)c1c(-c2ccccc2)csc1NC(=O)C1CCN(C(C)=O)CC1` had an RP-LC retention time of 862 s.
In the case of `Cn1cc(CN2C[C@@H](COc3cccnc3)[C@H](c3ccccn3)C2)cn1` it was 528 s.
